Measurements reported in patent US20050047997A1, “Method for the evaluation of the efficiency of a therapeutic action upon the human organism” (priority 1997, published 2005).

How the values were obtained:
Format in all cases: in vivo, human
[1] = tested on: arterial pressure; assay: Arterial pressure monitoring in hypertension patients; conditions: monitored every other day
Method: (§1) Selected hypertension patients are divided into two groups. The reference group includes 48 patients and the experimental group includes 56 patients. Each group consists of 60% of females, the rest being males. All the patients in the same group differ in age by not more than 1 year. The patients from the experimental group are treated with a hypotensive medication belonging to calcium current blocking agents—Corinfar, (see […], lines from 1 to 3), while those from the reference group are treated with a medication that blocks angiotensin-transforming enzyme (ATE) Prestarium (see FIG. 3, lines from 4 to 6). The period from the beginning of the relapse till the inclusion of the patient into the experiment is chosen to be 2 days. The phase of the disease is selected to be hypertension of medium exacerbation. The prevailing disease localization is its cerebral variant, in other words, the variant characterized by prevailing damage of cerebral vessels. The initial level of the homeostasis characteristics is set by the characteristic of electrolytic homeostasis, i.e. the sodium level, and is equal to 140 mmol/l for both groups. The patients' arterial pressure was monitored every other day, which corresponded to the period of time that is characterized by a significant decrease in arterial pressure under the effect of ATE blocking agent. […]

[2] = Electrolytic homeostasis (sodium level) in treated hypertension patients; conditions: initial level 140 mmol/l
Method: as §1

[3] = Homeostasis (lipid metabolism) indicators in treated ulcer patients
Method: As a result, each group consists of patients of the same sex or features the same proportion of males and females who differ in age by not more than one year. […] Thus, patients with the stomach ulcer are ranked by the ulcerous defect localization with the accuracy of 1/9th of the stomach sections: cardia, subcardia, upper, middle and lower thirds of the stomach body, angle, anthral and prepyloric sections, pylorus. The initial surface area of the ulcerous defect is measured. Then the current stage (phase) of the disease: acute stage (the stage of ulcer forming), stationary stage or “plateau” and the stage of reparation proper (see FIG. 4) is determined for each patient on the basis of clinical, laboratory and instrumental indications. These phases characterize the period of time that passed since the beginning of relapse (exacerbation or start) of the disease till the patient was included into the clinical experiment. The method in question uses homeostasis indications, particularly those related to lipid metabolism, for the evaluation of the efficiency of the therapeutic action. Based on the above principle, the patients are divided into subgroups according to the following classification: • cholesterol (CS); • high density lipoproteins (HDLP); • low density lipoproteins (LDLP); • very low density lipoproteins (VLDLP); • triglycerides (TG); • atherogenicity factor (AF).
The quantitative number of patients in groups must provide the statistical reliability of the results. In the given example the group treated with a reference medical preparation consisted of 73 patients, while the group treated with the medical preparation that had to be evaluated consisted of 81 patients. The reference group was treated with a medication belonging to proton pump blocking agent (for example, Zerocid), while the experimental group was treated with a medication belonging to antacids (for example, Maalox). If the studied medications are only to be ranked by the efficiency of their action upon the organism rather than compared with each other, placebo can be used as a reference medication. The control time is determined for the selected groups of ulcer patients. The control is performed individually for each ranked experimental group. […]
The initial efficiency criterion was a complete healing of ulcerous defect combined with the dynamics of the change in homeostasis characteristics. The individual temporal norm was represented by a time interval calculated on the basis of individual characteristics of the ulcer healing process that corresponded to the individual characteristics of the homeostasis indications, for instance, to the characteristics of lipid metabolism calculated by the known formulas. […]

[4] = tested on: ulcerous defect; assay: Ulcer healing (cicatrization of ulcerous defect) in ulcer patients; conditions: compared with the other group
Method: As a result, each group consists of patients of the same sex or features the same proportion of males and females who differ in age by not more than one year. […] Thus, patients with the stomach ulcer are ranked by the ulcerous defect localization with the accuracy of 1/9th of the stomach sections: cardia, subcardia, upper, middle and lower thirds of the stomach body, angle, anthral and prepyloric sections, pylorus. The initial surface area of the ulcerous defect is measured. Then the current stage (phase) of the disease: acute stage (the stage of ulcer forming), stationary stage or “plateau” and the stage of reparation proper (see FIG. 4) is determined for each patient on the basis of clinical, laboratory and instrumental indications. These phases characterize the period of time that passed since the beginning of relapse (exacerbation or start) of the disease till the patient was included into the clinical experiment. […]
The quantitative number of patients in groups must provide the statistical reliability of the results. In the given example the group treated with a reference medical preparation consisted of 73 patients, while the group treated with the medical preparation that had to be evaluated consisted of 81 patients. […] The control time is determined for the selected groups of ulcer patients. […]

SMILES	arterial pressure change as a result of treatment [1]	level of sodium after treatment [2]	effect upon the atherogenesis and oncogenesis judged from lipid spectrum indications [3]	HDLP indicators ([3]; FIG. 2a, lines 1-16)	atherogenicity factor (AF) ([3]; during treatment)	level of triglycerides (TG) ([3]; during treatment)	cicatrization of ulcerous defects [4]
COC(=O)C1=C(C)NC(C)=C(C(=O)OC)C1c1ccccc1[N+](=O)[O-] [Corinfar]	decreased by comparable values	146000 µM	–	–	–	–	–
CCC[C@H](N[C@@H](C)C(=O)N1[C@H](C(=O)O)C[C@@H]2CCCC[C@@H]21)C(=O)OCC [Prestarium]	decreased by comparable values	137000 µM	–	–	–	–	–
COc1ccc2[nH]c([S+]([O-])Cc3ncc(C)c(OC)c3C)nc2c1 (stereo not drawn) [Zerocid]	–	–	clearly negative effect	decreasing	increasing	increasing	faster
